Source: patent US20230346820A1, “METHODS AND COMPOSITIONS FOR THE TREATMENT OF SARS-COV-2” (priority 2020, published 2023)
Where two headings read alike, the source gives them in different places. Residues, ends and D or L forms follow the SMILES beside them. *: point of attachment. Cbz = O=C(OCc1ccccc1)*; CHN2 = [N-]=[N+]=C*

Assays:
[1] = tested on: HeLa-ACE2 cells; experiment: cells; assay type: cell-based, human; conditions: Homo sapiens
[2] = in vitro; conditions: human
[3] = tested on: SARS-CoV-2; experiment: microbe, parasite or virus in culture; conditions: Severe acute respiratory syndrome coronavirus 2, HeLa-ACE2, 24 h, read-out: CoV-2 EC50 [μM] (Geomeans, n ≥ 2)
[4] = tested on: SARS-CoV-2
[5] = HeLa-ACE2, read-out: HeLa-ACE-2 EC50 [μM] (Geomeans, n ≥ 2)
[6] = CC50 [μM] (Geomeans, n ≥ 2 except where indicated: *n = 1)

Row | SMILES | EC50 [1, 5] | CC50 [2, 6] | EC50 [3] | HeLa-ACE2 CC50/CoV-2 EC50 [4] | EC50 ([1]; HeLa-ACE2, read-out: EC50 (total cell numbers per well, toxicity in context of infection)) | CC50 ([2]; HeLa-ACE2 CC50)
1 | CC(C)(C)NC(=O)N[C@H](C(=O)N1C[C@H]2[C@@H]([C@H]1C(=O)NC(CC1CCC1)C(=O)C(N)=O)C2(C)C)C(C)(C)C (stereo partly drawn) [Boceprevir] | > 7.08 µM | > 39.8 µM | > 9.34 µM | 4.27 |  | 
2 | COc1ccc2nc3cc(Cl)ccc3c(Nc3cc(CN4CCCC4)c(O)c(CN4CCCC4)c3)c2n1 [pyronaridine] | 3.41 µM | > 7.39 µM | 1.52 µM | >4.86 |  | 
3 | CC(CN1CCN(c2cccc3c2CCCN3)CC1)NC(=O)c1ccc(F)cc1 (stereo not drawn) [SLV-307] | > 6.7 µM | > 39.8 µM | > 9.59 µM | 4.15 |  | 
4 | COc1ccc(C2(c3ccccc3)NC(=O)N(CCCN3CCC(c4ccccc4)CC3)C2=O)cc1 (stereo not drawn) [ROPITOIN] | > 9.59 µM | 21.5 µM | 4.08 µM | 5.28 |  | 
5 | Cc1cccc(/C=N/Nc2cc(N3CCOCC3)n3nc(-c4ccncc4)cc3n2)c1 [APY0201] |  | > 39.4 µM | 0.014 µM | >2853.95 |  | 
6 | CCCCCCOC(=O)NC(=N)c1ccc(NCc2nc3cc(C(=O)N(CCC(=O)OCC)c4ccccn4)ccc3n2C)cc1 [Dabigatranetexilate mesilate] |  | > 26.5 µM |  | >6.50 |  | 
7 | Cc1cccc(C)c1NC(=O)CN1CCN([C@@H]2CCN(C(=O)c3cc(C(F)(F)F)cc(C(F)(F)F)c3)[C@@H](Cc3ccccc3)C2)CC1 [R-116301] | > 9.59 µM | 25.5 µM | 6.83 µM | 3.73 |  | 
8 | C=CC(=O)Nc1cc2c(Nc3ccc(F)c(Cl)c3)ncnc2cc1C#CC(C)(C)N1CCN(C)CC1 [MP-412] | 1.25 µM | 3.18 µM | 0.761 µM | 4.18 |  | 
9 | Cc1ccc(C(=O)Nc2cccc(C(F)(F)F)c2)cc1NC(=O)c1cccc2c(N)nccc12 [RFM-011-761-3] | > 9.06 µM | > 21.2 µM | 6.31 µM | >3.37 |  | 
10 | CCOc1cc(C(C)(C)C)ccc1C1=N[C@@](C)(c2ccc(Cl)cc2)[C@@](C)(c2ccc(Cl)cc2)N1C(=O)N1CCN(CCCS(C)(=O)=O)CC1 [R-7112] | > 9.6 µM | > 14.9 µM | 3.23 µM | >4.61 |  | 
11 | O=C(CCCN1CCN(c2ccc(F)cc2)CC1)NC1c2ccccc2CSc2ccccc21 (stereo not drawn) [MONATEPIL] |  | > 39 µM | > 7.79 µM | >5.01 |  | 
12 | COc1cc(C(C)=O)ccc1OCCCN1CCC(C(O)(c2ccc(F)cc2)c2ccc(F)cc2)CC1 [AHR-5333] | > 7.1 µM | > 24.7 µM | > 4.53 µM | 5.44 |  | 
13 | CN1CCN(C2=Cc3cc(Cl)ccc3/C(=C\C#N)c3ccccc32)CC1 [Alkene Stereoisomer analog of Rilapine] | > 9.59 µM | > 39.8 µM | 2.99 µM | >13.32 |  | 
14 | CCCN1CCN(c2ccc(C(=O)NC3(C(=O)NCC#N)CCCCC3)cc2)CC1 [Balicatib] | > 9.59 µM | > 39.8 µM | 5.11 µM | >7.79 |  | 
15 | CCNCc1cc(Nc2ccnc3cc(Cl)ccc23)ccc1O | > 9.59 µM | > 20.4 µM | 1.22 µM | >16.69 |  | 
16 | N#Cc1ccc2c(c1)[C@H]1CN(CCCCNC(=O)c3ccc(-c4ccccc4)cc3)C[C@@H]1CO2 [S-33084] |  | > 24.8 µM | 3.91 µM | >6.34 |  | 
17 | COc1cc(CC2c3cc(OC)c(OC)cc3CCN2C)c(Oc2cc3c(cc2OC)-c2c(O)c(OC)cc4c2C(C3)N(C)CC4)cc1OC (stereo not drawn) [Thalicarpine Analog] | > 8.78 µM | > 21.5 µM | > 0.8 µM | 26.77 |  | 
18 | COc1ccc(C[C@H](N)C(=O)N[C@H]2[C@@H](O)[C@H](n3cnc4c(N(C)C)ncnc43)O[C@@H]2CO)cc1 [puromycin] |  |  |  |  | 0.547 ± 0.027 µM | 2.45 ± 0.23 µM
19 | CN1CCN(C2Cc3cc(Cl)ccc3Sc3ccccc32)CC1 (stereo not drawn) [OCTOCLOTHEPIN analog] | > 8.73 µM | > 28.4 µM | 2.49 µM | >11.42 |  | 
20 | CN1[C@@H]2CC[C@H]1C[C@@H](N1Cc3ccc4ccccc4c3C1=O)C2 [CR-3124] |  | > 39.8 µM |  | >6.67 |  | 
21 | CC1=C(c2ccc(O)cc2)[C@H](c2ccc(OCCN3CCCCC3)cc2)Oc2cc(O)ccc21 [ACOLBIFENE] | > 9.59 µM | 13.4 µM | 4.79 µM | 2.8 |  | 
22 | CC(C)CC(NC(=O)OCc1ccccc1)C(=O)NC(C(=O)NCC(=O)C=[N+]=[N-])C(C)C (stereo not drawn) [Z LVG CHN2] (Cbz-Leu-Val-Gly-CHN2; configuration not given here) |  | > 39.8 µM | 0.072 µM | >554.29 |  | 
